Experimental data published in patent publication US12115176B2, “Methods and compositions relating to ClbP inhibition” (PRESIDENT AND FELLOWS OF HARVARD COLLEGE, priority 2021, dated 2024).
pIC50: −log10 of the molar value. Entries after “also recorded” stand apart in the source; their conditions may differ.

What was measured:
[1] = test system: HeLa cells infected with NC101; experiment: DNA adduct detection by LC-MS; format: cell-based, human; conditions: 1 μM 3
Procedure: DNA adduct detection. Infections for DNA adduct detection were carried out using the protocol described above in 6-well plates where all volumes and cell numbers were increased by a factor of 4 accordingly. After trypsinization, cell pellets were frozen at −80° C. until analysis. DNA was isolated from cells as previously reported.^15 DNA samples (100 μL, 31-48 μg) in silanized glass vials were incubated at 80° C. for 1 hour. After the incubation, samples were allowed to cool to room temperature, and volumes were increased to 200 μL by adding LC-MS grade water. Samples were filtered using a Centrifree Ultrafiltration Device (30K molecular weight, Millipore Sigma) at 2000× g for 15 minutes. Samples were dried under vacuum and stored at −20° C. Mass spectrometric data was acquired with the following conditions. The dried samples were reconstituted in 10 μL of H2O and 4 μL of the resulting solution were injected onto an UltiMate 3000 RSLCnano UPLC (Thermo Fisher Scientific) system equipped with a 5 μL injection loop. Separation was performed with a capillary column (75 μm ID, 20 cm length, 10 μm orifice) created by hand packing a commercially available fused-silica emitter (New Objective, Woburn, MA) with 5 μm Luna C18 bonded separation media (Phenomenex, Torrance, CA). […]

Enterococcus faecalis = experiment: Bacterial MIC assay (broth dilution); format: cell-based; conditions: 15 h, read-out: MICs by compound
[2] = test system: FANCD2 in HeLa cell extracts; experiment: Western blot for FANCD2; format: cell-based, human; conditions: 1 μM 3
Procedure: Western Blot for FANCD2. Infections were carried out as described above. For conditions which involved other small molecules, no bacteria were introduced during the infection and cells were treated with either 0.5 μg/mL mitomycin C (MMC) or 7.5 μg/mL cisplatin under the same conditions for 4 hours. 20 hours after infection, cells were lysed directly in the culture wells (Lysis buffer: 50 mM Tris, (pH 8.0), 150 mM NaCl, 1% Triton X-100, 0.5% Sodium deoxycholate, 0.05% sodium dodecylsulfate, 1 mM MgSO4, SIGMAFAST Protease inhibitor mix, 100 U/mL benzonase (Millipore-Sigma). Lysates were then spun down at 16,000×g to remove particulates and the supernatant was mixed 1:1 with 2X Laemmli sample buffer (Bio-Rad) containing 50 mg/mL dithiothreitol (DTT). Samples were then heated at 70° C. for 10 minutes and run on an SDS-PAGE gel (3-8% Tris-Acetate Novex gel, Invitrogen) at 150 V for 1.5 hours at 4° C. Bands were then transferred to PVDF membranes (100 V, 1 hour at 4° C.) and blocked with 10% skim milk powder in TBST buffer at 4° C. overnight. Blots were probed sequentially with either mouse anti-actin (1.5 μg/mL) or mouse anti-FANCD2 (0.1 μg/mL) primary antibodies (Thermo Fisher Scientific, Catalog #MA511869 and MA123347), followed by a peroxidase-conjugated goat anti-mouse secondary antibody (Jackson ImmunoResearch product 115-035-003, 0.08 μg/mL). Each probing step was conducted for 90 minutes at room temperature n 2.5% skim milk powder in TBST. Before imaging, blots were washed 3×15 minutes each in TBST […]. Blots were imaged using the SuperSignal™ West Pico PLUS Chemiluminescent Substrate (Thermo Fisher Scientific) kit following the manufacturer's instructions and imaged using an Azure Biosystems c300 imager.

purified ClbP = purified ClbP (Escherichia coli, UniProt Q0P7K6); experiment: ClbP fluorescence activity assay (in vitro); format: biochemical, Escherichia coli CFT073
Description: Constructs and protein purification for in vitro assays. ClbP constructs described in this publication were derived from a previously described plasmid containing the Escherichia coli CFT073 ClbP sequence (GenBank ID: NP_754344.1) inserted between the NdeI and XhoI restriction sites of pET29b (Addgene plasmid #48244).^14 All in vitro experiments used a construct bearing a C-terminal 10×His tag. This longer polyhistidine-tag was obtained by extension of the previously described 6×His tag through site-directed mutagenesis. All site-directed mutations were introduced using the Quikchange mutagenesis protocol (Stratagene) and confirmed by Sanger DNA sequencing of the whole open reading frame. Plasmids were transformed into chemically competent C41(DE3) (Lucigen) cells and proteins were isolated as previously described.^34
ClbP fluorescence activity assay (in vitro). Assays were performed in a buffer containing 50 mM Tris, 200 mM NaCl, 0.02% w/v DDM at pH 8.0 with 25 nM purified ClbP and 25 μM fluorogenic substrate in a total volume of 20 μL.^34 Purified ClbP was defrosted on ice from stocks stored at −80° C. Stocks were diluted to 50 nM enzyme in assay buffer in the wells of a black, flat-bottom 384-well plate and the appropriate inhibitor in DMSO or DMSO was added to a final concentration of 1%. For experiments testing different inhibitor concentrations, reactions were allowed to sit for 1 hour at room temperature. For experiments testing different preincubation times, the inhibitor in DMSO was added to each reaction X minutes before initiating the reaction, where X is the time indicated on the x-axis for that sample. For experiments to test whether hydrolysis of the boronic ester was rate-limiting, the inhibitor was added to buffer with no enzyme present and allowed to sit at room temperature for the time indicated before adding the enzyme. In all cases, reactions were initiated by the addition of 10 μL, of buffer containing the 50 μM fluorogenic substrate to achieve a final concentration of 25 μM and pipetting once with a multichannel pipette to mix. Reaction progress was monitored in a plate reader (Bio-Tek Synergy HTX multimode plate reader) with an excitation filter of 360/40 nm and an emission filter of 440/20 nm. “% activity” was determined based on the measured relative fluorescence units (RFU) of each condition after 1 hour using the following formula: […]

CC1(C)OB([C@@H](CC(N)=O)NC(=O)CCCc2ccccc2)OC1(C)C [Compound 3]
colibactin-derived DNA adduct formation [1]: could effectively suppress formation of a colibactin-derived DNA adduct; also recorded: sufficient to suppress adduct formation to a degree similar to genetic deletion of clbP; also recorded: prevents
MIC (Enterococcus faecalis): > 200 µM
FANCD2 ubiquitination in colibactin-exposed cells ([2]; HeLa cells exposed to pks+ E. coli (NC101)): prevented this response; also recorded: prevents
effect of 3 on FANCD2-Ub response to MMC or cisplatin ([2]; HeLa cells): had no impact on the response to MMC or cisplatin
pIC50 (purified ClbP): 7.55
speed of reaching maximum potency, in words (purified ClbP; slow-binding inhibition assay, 100 nM): achieved their maximum potency faster than compound 4
